In US7658941B2, “Warming and nonirritating lubricant compositions and method of comparing irritation” (Johnson & Johnson Consumer Companies, Inc., priority 2002, dated 2010):

Tests used:
[1] = Generation of warmth by mixing equal quantity with water; format: physicochemical; conditions: for Actual Temperature (° F.) / Rise in Temperature (° F.) (Expected Minus Actual): 20 ml mixed with 20 ml of water for two minutes
Experimental: The temperature of the product and that of water were recorded before water was added to the product. After the addition of water the mixture was mixed for two minutes and the actual temperature was recorded. Glycerin, Propylene Glycol and Honey are the ingredients in Composition 1. It is clear from Table 1 that when mixed with water the temperature of the mixture rises by 9.0° F for Glycerin, 13.5° F. for Propylene Glycol, 17.0° F. for Polyethylene Glycol 400 and 12.5° F. for composition Example 1 of this invention.
Calculated Rise in Temperature: In order to determine the expected rise in temperature from each composition, the percentage of each component in such composition was multiplied by the temperature increase generated by such component alone to obtain its expected contribution to the temperature increase. These values were added together to calculate the total expected temperature rise. These values were then compared with the actual temperature rise generated by each composition. For example, the calculated rise in temperature generated by the “K-Y Warming®”, composition in the table above was found as follows and compared with the actual temperature rise to determine the unexpectedly higher generation of warmth of the composition:
Compositions 10, 11 and 12 were tested in accordance with the following procedure to determine the extent to which said compositions generate warmth upon mixture with water. Data was generated by mixing 20 ml of each composition with 20 ml of water. The temperature of the composition and that of water were recorded before water was added to the composition After the addition of water the contents were mixed for two minutes and the actual temperature was recorded.

[2] = system: epithelial cells derived from human skin; format: cell-based
Experimental: The method designated as EpiDerm™ Skin Model assay uses the epithelial cells derived from human skin as target cells and is commercially available from the MatTek Corporation. […] The test materials are applied directly to the epithelial cell culture surface. […] The toxicity of the test material is evaluated on the basis of relative tissue viability vs time. The actual Tissue Viability is determined by NAD(P)H-dependent microsomal enzyme reduction of MTT in control and test article treated cultures. The negative control used in this assay was deionized water and the positive control was Triton X-100. The exposed cell cultures were incubated for 4, 8, 16 and 24 hours and assayed for reduction of MTT. […] Relative irritation in this assay is expressed by the percent survival rate of epiderm cells over a period of 24 hours. Products with higher relative survival rates are less toxic or less irritating while the ones with lower survival rates are more toxic or irritating.
The data is plotted as % Viable Cells vs the Exposure Time ranging from 4 to 24 hours.

| Compound | Actual Temperature (° F.) [1] | Rise in Temperature (° F.) (Expected Minus Actual) [1] | % viable cells [2] | expected contribution of component to the temperature increase ([1]; in K-Y Warming (Composition 1)) | expected contribution of component to the temperature increase ([1]; in Composition 10) |
| --- | --- | --- | --- | --- | --- |
| Polysorbate 60 | 83.1 ° F. | 10.6 ° F. |  |  |  |
| CCCCCCCCCCCCCC(=O)OC(C)C [Isopropyl Myristate] | 75.2 ° F. | 0.7 ° F. |  |  |  |
| Triton X-100 |  |  | 22.4% |  |  |
| OCC(O)CO [Glycerin] | 79.0 ° F. | 9.0 ° F. |  | 4.05 |  |
| CC(O)CO (stereo not drawn) [Propylene Glycol] | 85.2 ° F. | 13.5 ° F. |  | 6.75 | 5.13 |
